PMC8154581, “Discovery of Novel Thiophene-arylamide Derivatives as DprE1 Inhibitors with Potent Antimycobacterial Activities” (Journal of Medicinal Chemistry, 2021)
In brackets after ≈: the same amount, converted by molar mass. Read-outs that look alike come from different tables or passages of the source.

Legend:
Vero cells = assay: Cytotoxicity assay in Vero cells (MTT); type: cell-based; conditions: for IC50: Chlorocebus sabaeus, Vero cells, 48 h, read-out: IC50 (Vero)
M. tuberculosis H37Rv = assay: MIC against replicating M. tuberculosis H37Rv, microplate Alamar blue assay (MABA); type: cell-based
[1] = Mycobacterium tuberculosis, H37RV, against M. tuberculosis H37Rv, Tables 1-3, read-out: MIC
[2] = Mycobacterium tuberculosis, H37RV, supplementary CSV, same values as Tables 1-3, read-out: Minimal inhibit concentration
[3] = against M. tuberculosis H37Rv, Tables 1-3

## CCOC(=O)NC(=O)c1ccsc1NC(=O)c1ccc(C(=O)N2CCC2)cc1 [Compound 23h, Ethyl (2-(4-(Azetidine-1-carbonyl)benzamido)thiophene-3-carbonyl)carbamate]
Vero cells
  SI: >76
  IC50: > 64 µg/mL
M. tuberculosis H37Rv; [1]
  MIC: 0.84 µg/mL (≈ 2.09 µM)
M. tuberculosis H37Rv; [2]
  MIC: 0.84 µg/mL (≈ 2.09 µM)
other
  melting point: 182 to 183 °C

## Cc1ccnc(NC(=O)c2ccsc2NC(=O)c2ccc(C(=O)N3CCCCC3)c(F)c2)n1 [Compound 25k, 2-(3-Fluoro-4-(piperidine-1-carbonyl)benzamido)-N-(4-methylpyrimidin-2-yl)thiophene-3-carboxamide]
Vero cells
  SI: >136
  IC50: > 64 µg/mL
M. tuberculosis H37Rv; [1]
  MIC: 0.47 µg/mL (≈ 1.01 µM)
M. tuberculosis H37Rv; [2]
  MIC: 0.47 µg/mL (≈ 1.01 µM)
other
  melting point: 148 to 150 °C

## N-(4-Methylpyridin-2-yl)-2-(4-(piperidine-1-carbonyl)benzamido)thiophene-3-carboxamide [Compound 25o]
M. tuberculosis H37Rv; [3]
  MIC: >32 µg/mL
M. tuberculosis H37Rv; supplementary CSV, same values as Tables 1-3
  Minimal inhibit concentration: >32 µg/mL

## CCOC(=O)NC(=O)c1ccsc1NC(=O)c1cccc(C(=O)N2CCCCC2)c1 [Compound 24a, Ethyl (2-(3-(Piperidine-1-carbonyl)benzamido)thiophene-3-carbonyl)carbamate]
M. tuberculosis H37Rv; [1]
  MIC: 3.7 µg/mL (≈ 8.61 µM)
M. tuberculosis H37Rv; [2]
  MIC: 3.7 µg/mL (≈ 8.61 µM)

## CCOC(=O)NC(=O)c1ccsc1NC(=O)c1ccc(C(=O)N2CCCCC2)cc1Cl [Compound 24c, Ethyl (2-(2-Chloro-4-(piperidine-1-carbonyl)benzamido)thiophene-3-carbonyl)carbamate]
Vero cells
  SI: >142
  IC50: > 64 µg/mL
M. tuberculosis H37Rv; [1]
  MIC: 0.45 µg/mL (≈ 0.97 µM)
M. tuberculosis H37Rv; [2]
  MIC: 0.45 µg/mL (≈ 0.97 µM)
other
  melting point: 59 to 60 °C

## CCOC(=O)NC(=O)c1ccsc1NC(=O)c1ccc(C(=O)N(C)CC)cc1 [Compound 23b, Ethyl (2-(4-(Ethyl(methyl)carbamoyl)benzamido)thiophene-3-carbonyl)carbamate]
Vero cells
  SI: >67
  IC50: > 64 µg/mL
M. tuberculosis H37Rv; [1]
  MIC: 0.95 µg/mL (≈ 2.35 µM)
M. tuberculosis H37Rv; [2]
  MIC: 0.95 µg/mL (≈ 2.35 µM)
other
  melting point: 161 to 162 °C

## CCOC(=O)NC(=O)c1ccsc1NC(=O)c1ccc2cc(C(=O)N3CCCCC3)ccc2c1 [Compound 24h, Ethyl (2-(6-(Piperidine-1-carbonyl)-2-naphthamido)thiophene-3-carbonyl)carbamate]
M. tuberculosis H37Rv; [1]
  MIC: 3.13 µg/mL (≈ 6.53 µM)
M. tuberculosis H37Rv; [2]
  MIC: 3.13 µg/mL (≈ 6.53 µM)
other
  melting point: 177 to 178 °C

## CCOC(=O)NC(=O)c1ccsc1NC(=O)c1ccc(C(=O)N2CCSCC2)cc1 [Compound 23p, Ethyl (2-(4-(Thiomorpholine-4-carbonyl)benzamido)thiophene-3-carbonyl)carbamate]
Vero cells
  SI: 159
  IC50: 52.3 µg/mL (≈ 117 µM)
M. tuberculosis H37Rv; [1]
  MIC: 0.33 µg/mL (≈ 0.737 µM)
M. tuberculosis H37Rv; [2]
  MIC: 0.33 µg/mL (≈ 0.737 µM)
other
  melting point: 178 to 179 °C

## CCOC(=O)NC(=O)c1ccsc1NC(=O)c1ccc(C(=O)NC23CC4CC(CC(C4)C2)C3)cc1 [Compound 23d, Ethyl (2-(4-(((3S,5S,7S)-Adamantan-1-yl)carbamoyl)benzamido)thiophene-3-carbonyl)carbamate]
Vero cells
  SI: 16
  IC50: 1.96 µg/mL (≈ 3.95 µM)
M. tuberculosis H37Rv; [1]
  MIC: 0.12 µg/mL (≈ 0.242 µM)
M. tuberculosis H37Rv; [2]
  MIC: 0.12 µg/mL (≈ 0.242 µM)
other
  melting point: 157 to 158 °C

## CCOC(=O)NC(=O)c1ccsc1NC(=O)c1ccc(C(=O)N2CCC(F)(F)CC2)cc1 [Compound 23n, Ethyl (2-(4-(4,4-Difluoropiperidine-1-carbonyl)benzamido)thiophene-3-carbonyl)carbamate]
Vero cells
  IC50: > 64 µg/mL
M. tuberculosis H37Rv; [1]
  MIC: 0.25 µg/mL (≈ 0.537 µM)
M. tuberculosis H37Rv; [2]
  MIC: 0.25 µg/mL (≈ 0.537 µM)

## CCCNC(=O)c1ccc(C(=O)Nc2sccc2C(=O)NC(=O)OCC)cc1 [Compound 23a, Ethyl (2-(4-(Propylcarbamoyl)benzamido)thiophene-3-carbonyl)carbamate]
Vero cells
  SI: >320
  IC50: > 64 µg/mL
M. tuberculosis H37Rv; [1]
  MIC: 0.2 µg/mL (≈ 0.496 µM)
M. tuberculosis H37Rv; [2]
  MIC: 0.2 µg/mL (≈ 0.496 µM)
M. tuberculosis H37Rv; [3]
  MIC: 0.20 µg/mL (≈ 0.496 µM)
other
  melting point: 219 to 220 °C

## CCOC(=O)NC(=O)c1ccsc1NC(=O)c1ccc(C(=O)N2CCCCC2)c(C)c1 [Compound 24g, Ethyl (2-(3-Methyl-4-(piperidine-1-carbonyl)benzamido)thiophene-3-carbonyl)carbamate]
Vero cells
  IC50: 53.1 µg/mL (≈ 120 µM)
M. tuberculosis H37Rv; Mycobacterium tuberculosis, H37RV, against M. tuberculosis H37Rv, Tables 1-3
  MIC: 0.12 µg/mL (≈ 0.271 µM)
M. tuberculosis H37Rv; [2]
  MIC: 0.12 µg/mL (≈ 0.271 µM)

## Cc1cnc(NC(=O)c2ccsc2NC(=O)c2ccc(C(=O)N3CCCCC3)cc2)cn1 [Compound 25m, N-(5-Methylpyrazin-2-yl)-2-(4-(piperidine-1-carbonyl)benzamido)thiophene-3-carboxamide]
M. tuberculosis H37Rv; [1]
  MIC: > 32 µg/mL
M. tuberculosis H37Rv; [2]
  MIC: > 32 µg/mL
other
  melting point: 177 to 179 °C

## COC(=O)C1CN(C(=O)c2ccsc2NC(=O)c2ccc(C(=O)N3CCCCC3)cc2)C1 [Compound 25e, Methyl 1-(2-(4-(Piperidine-1-carbonyl)benzamido)thiophene-3-carbonyl)azetidine-3-carboxylate]
M. tuberculosis H37Rv; [1]
  MIC: > 32 µg/mL
M. tuberculosis H37Rv; [2]
  MIC: > 32 µg/mL
other
  melting point: 154 to 155 °C

## CCOC(=O)NC(=O)c1ccsc1NC(=O)c1ccc(C(=O)N2CCCC2)cc1 [Compound 23i, Ethyl (2-(4-(Pyrrolidine-1-carbonyl)benzamido)thiophene-3-carbonyl)carbamate]
Vero cells
  IC50: > 64 µg/mL
M. tuberculosis H37Rv; [1]
  MIC: 0.2 µg/mL (≈ 0.481 µM)
M. tuberculosis H37Rv; [2]
  MIC: 0.2 µg/mL (≈ 0.481 µM)

## CCOC(=O)NC(=O)c1ccsc1NC(=O)c1ccc(C(=O)N2CCCCCC2)cc1 [Compound 23k, Ethyl (2-(4-(Azepane-1-carbonyl)benzamido)thiophene-3-carbonyl)carbamate]
Vero cells
  IC50: 48.4 µg/mL (≈ 109 µM)
M. tuberculosis H37Rv; [1]
  MIC: 0.22 µg/mL (≈ 0.496 µM)
M. tuberculosis H37Rv; [2]
  MIC: 0.22 µg/mL (≈ 0.496 µM)

## COC(=O)N1CCN(C(=O)c2ccsc2NC(=O)c2ccc(C(=O)N3CCCCC3)cc2)CC1 [Compound 25g, Methyl 4-(2-(4-(Piperidine-1-carbonyl)benzamido)thiophene-3-carbonyl)piperazine-1-carboxylate]
M. tuberculosis H37Rv; [1]
  MIC: > 32 µg/mL
M. tuberculosis H37Rv; [2]
  MIC: > 32 µg/mL
other
  melting point: 113 to 114 °C

## Cc1cccc(NC(=O)c2ccsc2NC(=O)c2ccc(C(=O)N3CCCCC3)cc2)n1 [Compound 25n, N-(6-Methylpyridin-2-yl)-2-(4-(piperidine-1-carbonyl)benzamido)thiophene-3-carboxamide]
M. tuberculosis H37Rv; [1]
  MIC: > 32 µg/mL
M. tuberculosis H37Rv; [2]
  MIC: > 32 µg/mL
other
  melting point: 171 to 174 °C

## CCOC(=O)NC(=O)c1ccsc1NC(=O)c1ccc(-c2ccc(C(=O)N3CCCCC3)cc2)cc1 [Compound 24i, Ethyl (2-(4′-(Piperidine-1-carbonyl)-[1,1′-biphenyl]-4-carboxamido)thiophene-3-carbonyl)carbamate]
M. tuberculosis H37Rv; [1]
  MIC: 7.76 µg/mL (≈ 15.3 µM)
M. tuberculosis H37Rv; [2]
  MIC: 7.76 µg/mL (≈ 15.3 µM)

## CCNC(=O)NC(=O)c1ccsc1NC(=O)c1ccc(C(=O)N2CCCCC2)cc1 [Compound 25c, N-(Ethylcarbamoyl)-2-(4-(piperidine-1-carbonyl)benzamido)thiophene-3-carboxamide]
M. tuberculosis H37Rv; [1]
  MIC: > 32 µg/mL
M. tuberculosis H37Rv; [2]
  MIC: > 32 µg/mL
other
  melting point: 223 to 224 °C

## Cc1cc(C)nc(NC(=O)c2ccsc2NC(=O)c2ccc(C(=O)N3CCCCC3)cc2)n1 [Compound 25p, N-(4,6-Dimethylpyrimidin-2-yl)-2-(4-(piperidine-1-carbonyl)benzamido)thiophene-3-carboxamide]
M. tuberculosis H37Rv; [1]
  MIC: > 32 µg/mL
M. tuberculosis H37Rv; [2]
  MIC: > 32 µg/mL
other
  melting point: 189 to 190 °C

## Cc1ccc2sc(NC(=O)c3ccsc3NC(=O)c3ccc(C(=O)N4CCCCC4)cc3)nc2c1 [Compound 25q, N-(5-Methylbenzo[d]thiazol-2-yl)-2-(4-(piperidine-1-carbonyl)benzamido)thiophene-3-carboxamide]
M. tuberculosis H37Rv; [1]
  MIC: > 32 µg/mL
M. tuberculosis H37Rv; [2]
  MIC: > 32 µg/mL
other
  melting point: > 250 °C

## CCOC(=O)NC(=O)c1ccsc1NC(=O)c1ccc(C(=O)N2CCC(C)CC2)cc1 [Compound 23l, Ethyl (2-(4-(4-Methylpiperidine-1-carbonyl)benzamido)thiophene-3-carbonyl)carbamate]
Vero cells
  IC50: > 64 µg/mL
M. tuberculosis H37Rv; [1]
  MIC: 0.03 µg/mL (≈ 0.0676 µM)
M. tuberculosis H37Rv; [2]
  MIC: 0.03 µg/mL (≈ 0.0676 µM)

## CCOC(=O)NC(=O)c1ccsc1NC(=O)c1ccc(C(=O)N2CCCCC2)cc1F [Compound 24b, Ethyl (2-(2-Fluoro-4-(piperidine-1-carbonyl)benzamido)thiophene-3-carbonyl)carbamate]
Vero cells
  IC50: > 64 µg/mL
M. tuberculosis H37Rv; [1]
  MIC: 0.12 µg/mL (≈ 0.268 µM)
M. tuberculosis H37Rv; [2]
  MIC: 0.12 µg/mL (≈ 0.268 µM)

## COC(=O)C1CCN(C(=O)c2ccsc2NC(=O)c2ccc(C(=O)N3CCCCC3)cc2)CC1 [Compound 25f, Methyl 1-(2-(4-(Piperidine-1-carbonyl)benzamido)thiophene-3-carbonyl)piperidine-4-carboxylate]
M. tuberculosis H37Rv; [1]
  MIC: 15.5 µg/mL (≈ 32.1 µM)
M. tuberculosis H37Rv; [2]
  MIC: 15.5 µg/mL (≈ 32.1 µM)
other
  melting point: 169 to 170 °C

## COc1nc2ccc(Br)cc2cc1[C@@H](c1ccccc1)[C@@](O)(CCN(C)C)c1cccc2ccccc12 [bedaquiline, reference compound]
M. tuberculosis H37Rv; Mycobacterium tuberculosis, H37RV, Table 4, read-out: MIC H37Rv
  MIC: 0.036 µg/mL (≈ 0.0648 µM)

## CCOC(=O)NC(=O)c1ccsc1NC(=O)c1ccc(C(=O)N2CCOCC2)cc1 [Compound 23o, Ethyl (2-(4-(Morpholine-4-carbonyl)benzamido)thiophene-3-carbonyl)carbamate]
M. tuberculosis H37Rv; [1]
  MIC: 1.66 µg/mL (≈ 3.85 µM)
M. tuberculosis H37Rv; [2]
  MIC: 1.66 µg/mL (≈ 3.85 µM)
other
  melting point: 159 to 160 °C

## Cc1cnc(NC(=O)c2ccsc2NC(=O)c2ccc(C(=O)N3CCCCC3)cc2)s1 [Compound 25i, N-(5-Methylthiazol-2-yl)-2-(4-(piperidine-1-carbonyl)benzamido)thiophene-3-carboxamide]
M. tuberculosis H37Rv; [1]
  MIC: > 32 µg/mL
M. tuberculosis H37Rv; [2]
  MIC: > 32 µg/mL
other
  melting point: 236 to 238 °C

## CCOC(=O)NC(=O)c1ccsc1NC(=O)c1cc(C(=O)N2CCCCC2)c[nH]1 [Compound 24l, Ethyl (2-(4-(Piperidine-1-carbonyl)-1H-pyrrole-2-carboxamido)thiophene-3-carbonyl)carbamate]
M. tuberculosis H37Rv; [1]
  MIC: 1.77 µg/mL (≈ 4.23 µM)
M. tuberculosis H37Rv; [2]
  MIC: 1.77 µg/mL (≈ 4.23 µM)
other
  melting point: 183 to 184 °C

## CCOC(=O)N1CCN(C(=O)c2ccsc2NC(=O)c2ccc(C(=O)N3CCCCC3)cc2)CC1 [Compound 25h, Ethyl 4-(2-(4-(Piperidine-1-carbonyl)benzamido)thiophene-3-carbonyl)piperazine-1-carboxylate]
M. tuberculosis H37Rv; [1]
  MIC: > 32 µg/mL
M. tuberculosis H37Rv; [2]
  MIC: > 32 µg/mL
other
  melting point: 134 to 135 °C

## NC(=O)c1ccsc1NC(=O)c1ccc(C(=O)N2CCCCC2)cc1 [Compound 25d, 2-(4-(Piperidine-1-carbonyl)benzamido)thiophene-3-carboxamide]
M. tuberculosis H37Rv; [1]
  MIC: > 32 µg/mL
M. tuberculosis H37Rv; [2]
  MIC: > 32 µg/mL
